Measurements from a melting point compilation (Tetko et al.; mined from patent text by program, amines drawn as free bases though some values may be those of a salt).

Row | SMILES | melting point [°C]
1 | Clc1ccc(/C=C/C2=CCN(Cc3ccccc3)CC2)cn1 | 126 to 128
2 | CCN1C(=O)CON(C(C)=O)C1c1ccccc1 (configuration not stated) | 130 to 132
3 | C=C1C(=O)NC(=O)N1c1ccc(Cl)cc1 | 185 to 187
4 | O=Cc1cc(Br)c(Cl)s1 | 61 to 62
5 | COc1cc(NC(N)=S)c(Cl)c(OC)c1 | 159 to 162
6 | O=C(CS(=O)(=O)C(c1ccc(Cl)cc1)c1ccc(Cl)cc1)C(F)(F)F | 60 to 62
7 | O=C1CCC(CO)N1OCc1ccccc1 (configuration not stated) | 121 to 123
8 | CN1CCN2c3ncc(Br)cc3Cc3ccccc3C2C1 (configuration not stated) | 126 to 128
9 | Cc1ccc(C)n1-c1cc2c(cc1C(F)(F)F)[nH]c(=O)c(=O)n2CCC(=O)NCc1ccccc1 | 260 to 262
10 | COC(=O)c1cc(-c2ccc3c(c2)c2cc(-c4ccc(Cl)cc4Cl)c(=O)n(C)c2n3C)[nH]n1 | 290 to 292
11 | O=C1CC(=O)CC(CC2CCOCC2)C1 | 129 to 130
12 | COP(=S)(OC)Oc1nsc(SC)n1 | 45
13 | CC(=O)NC1CCC(=O)C(=CN(C)C)C1 (configuration not stated) | 132 to 133
14 | CN(C)c1cc(C=O)cc(N(C)C)c1N1CCCCC1 | 114 to 116
15 | COc1cccc2c1CC(C(=O)O)N2C(=O)OC(C)(C)C (configuration not stated) | 148 to 150
16 | COc1c2c(c(OC)c(OC)c1OC)CC(C(=O)O)(c1ccc(OCCCC(=O)O)cc1)C2 | 148 to 150
17 | CNC(=O)Oc1ccc(NS(=O)(=O)c2ccc(C)cc2)c(C)c1 | 181 to 184
18 | CC(=O)NCc1ccc(CN2CCN(c3ccc(F)cc3NC(C)=O)CC2)cc1 | 148 to 150
19 | COc1ccc(S(=O)(=O)N(CCO)c2ccc(Cl)cc2C(O)c2ccccc2Cl)cc1OC (configuration not stated) | 86.2
20 | O=C(CCl)Nc1ccc2c(c1NC(=O)c1ccco1)C(=O)c1ccccc1C2=O | 211 to 212
21 | Cc1nc(Cl)c2c(c1O)COC2(C)C | 251
22 | O=C(O)c1cc(-c2ccccc2Cl)c[nH]c1=O | 299 to 303
23 | O=c1[nH]ccn1-c1ccc(F)cc1 | 166 to 167
24 | CC1N=CC=C(CS)C1(O)CC(=O)O (configuration not stated) | 185 to 187
25 | Clc1cc(N2CCCC2)nc(Cl)n1 | 100 to 104
26 | CC1(C)CC(OC(=O)CCCCCCCCC(=O)OC2CC(C)(C)N(OC(=O)c3ccccc3)C(C)(C)C2)CC(C)(C)N1OC(=O)c1ccccc1 | 92 to 100

Now from value to molecule:

Row | melting point [°C] | SMILES
27 | 91.5 to 93.5 | Cc1ccc(-c2c(N)ncnc2OCCO)cc1
28 | 178 to 180 | COc1ccc(C2=NN(CC(=O)O)C(=O)[C@H]3CC=CC[C@@H]23)cc1OC (relative stereo)
29 | 125 to 128 | Cc1nc(N)nc(N)c1CCC(C)c1ccc(Cl)cc1 (configuration not stated)
30 | 173 | Cc1nc2cc(S(=O)(=O)n3c(CCCC(=O)O)cc4nc(Cl)ccc43)ccc2s1
31 | 208 to 209 | Cc1cc(C)cc(S(=O)(=O)c2cccc(N)c2C#N)c1
32 | 240 to 241 | O=C(O)CCC(=O)Nc1cccc(-c2ccnc3c(C(=O)c4cccs4)cnn23)c1
33 | 123 | Cc1cc(-c2cc(C(F)F)nn2-c2ccc(S(C)(=O)=O)c(F)c2)ccc1-c1nccs1
34 | 245 to 248 | COCCOc1ccc2c(C3C(=O)Nc4ccccc43)ncnc2c1 (configuration not stated)
35 | 136 to 137 | O=Cc1c(O)ccc2ncccc12
36 | > 270 | Cn1ncc2[nH]c3ccc(Cc4cccc(O)c4)cc3c(=O)c21
37 | 182 to 184 | Cc1c(C(=O)O)oc2ccc(Br)c(OC(C)C)c12
38 | 191 to 193 | COC(=O)c1cc2ccc(C(=O)NCCc3ccccn3)cc2[nH]1
39 | 69 to 70 | COc1ccc(COC(=O)CCc2nc(-c3ccc(Cl)cc3)co2)cc1
40 | 133 to 135 | COCc1cc(-c2ncc3[nH]c4cccc(OCc5ccccc5)c4c3c2COC)no1
41 | 270 to 272 | Nc1nc(Oc2c(Cl)cccc2Cl)nc2nc(-c3ccco3)nn12
42 | 153 | CCNC(=O)c1ccc(-n2nnc(C(=O)NC3CC3)c2CNCc2ccccc2)cc1
